These results are taken from patent publication US7662825B2, “N-pyrazinyl-phenylsulphonamides and their use in the treatment of chemokine mediated diseases” (AstraZeneca AB, priority 2002, dated 2010).

By melting point is commonly meant the temperature, or range, at which the solid turns liquid. For `COc1nc(Cl)c(Cl)nc1NS(=O)(=O)c1ccc(Cl)c(Cl)c1` [Example 64, 3,4-Dichloro-N-(5,6-dichloro-3-methoxy-2-pyrazinyl)benzenesulphonamide], the melting point was 189 to 191 °C.

Compound `COc1nc(C)c(C)nc1NS(=O)(=O)c1cccc(Cl)c1Cl` [Example 65, 2,3-Dichloro-N-(3-methoxy-5,6-dimethyl-2-pyrazinyl)benzenesulphonamide] gave a melting point of 165 to 166 °C.

Consider `COc1nc(OC)c(NS(=O)(=O)c2cccc(Cl)c2Cl)nc1Cl` [Example 66, 2,3-Dichloro-N-(6-chloro-3,5-dimethoxy-2-pyrazinyl)benzenesulphonamide], for which the melting point lay within 163 to 165 °C.

Take `COc1nc(N2CCOCC2)c(Cl)nc1NS(=O)(=O)c1cccc(Cl)c1Cl` [Example 67, 2,3-Dichloro-N-[6-chloro-3-methoxy-5-(4-morpholinyl)-2-pyrazinyl]benzenesulphonamide]: the melting point lay in the range of 150 to 151 °C.

On to `COc1nc(N(C)C)c(Cl)nc1NS(=O)(=O)c1cccc(Cl)c1Cl` [Example 69, 2,3-Dichloro-N-[6-chloro-5-dimethylamino-3-methoxy-2-pyrazinyl]benzenesulphonamide], for which the melting point lay within 145 to 146 °C.

`COCCOc1nc(OC)c(NS(=O)(=O)c2cccc(Cl)c2Cl)nc1Cl` [Example 70, 2,3-Dichloro-N-[6-chloro-3-methoxy-5-(2-methoxyethoxy)-2-pyrazinyl]benzenesulphonamide] displayed a melting point of 193 to 194 °C.

Compound `COc1nc(-c2cnccn2)cnc1NS(=O)(=O)c1cccc(Cl)c1Cl` [Example 72, 2,3-Dichloro-N-[6-methoxy-5-([2,2′]bipyrazinylyl)]benzenesulphonamide] returned a melting point of 199 to 200 °C.

As for `COc1nc(Oc2ccc(C(=O)O)cc2)cnc1NS(=O)(=O)c1cccc(Cl)c1Cl` [Example 73, 4-[5-(2,3-Dichlorobenzenesulphonylamino)-6-methoxy-2-pyrazinyloxy]benzoic acid], the melting point lay within 186 to 187 °C.

As to `O=S(=O)(Nc1ncc(Cl)nc1Cl)c1cccc(Cl)c1Cl` [Example 74, 2,3-Dichloro-N-(3,5-dichloro-2-pyrazinyl)benzenesulphonamide], the melting point is 181 to 182 °C.

Regarding `COCCNc1nc(OC)c(NS(=O)(=O)c2cccc(Cl)c2Cl)nc1Cl` [Example 75, 2,3-Dichloro-N-{6-chloro-3-methoxy-5-([2-methoxyethyl)amino]-2-pyrazinyl}benzenesulphonamide], the melting point fell in the range of 177 to 178 °C.

`COc1nc(NCCNC(C)=O)c(Cl)nc1NS(=O)(=O)c1cccc(Cl)c1Cl` [Example 76, N-{2-[3-Chloro-5-(2,3-dichlorobenzenesulphonylamino)-6-methoxy-2-pyrazinylamino]ethyl}acetamide] registered a melting point of 150 to 152 °C.

`N#Cc1cnc(NS(=O)(=O)c2cccc(Cl)c2Cl)c(OCc2cccnc2)n1` [Example 78, 2,3-Dichloro-N-[5-cyano-3-(3-pyridinylmethoxy)-2-pyrazinyl]benzenesulphonamide]: the melting point is 222 to 224 °C.

`CNc1nc(OC)c(NS(=O)(=O)c2cccc(Cl)c2Cl)nc1Cl` [Example 79, 2,3-Dichloro-N-(6-chloro-3-methoxy-5-methylamino-2-pyrazinyl)benzenesulphonamide] showed a melting point of 185 to 186 °C.

Regarding `COc1nc(SC)cnc1NS(=O)(=O)c1cccc(Cl)c1Cl` [Example 80, 2,3-Dichloro-N-(3-methoxy-5-methylsulphanyl-2-pyrazinyl)benzenesulphonamide], the melting point was in the range of 141 to 142 °C.

On to `COc1nc(-c2ccc(F)cc2F)cnc1NS(=O)(=O)c1cccc(Cl)c1Cl` [Example 81, 2,3-Dichloro-N-[5-(2,4-difluorophenyl)-3-methoxy-2-pyrazinyl]benzenesulphonamide], for which the melting point is 169 to 170 °C.

As for `COC(=O)CSc1cnc(NS(=O)(=O)c2cccc(Cl)c2Cl)c(OC)n1` [Example 82, [5-(2,3-Dichlorobenzenesulphonylamino)-6-methoxy-2-pyrazinylsulphanyl]acetic acid methyl ester], the melting point was 152 to 153 °C.

`COc1nc(SCC(=O)O)cnc1NS(=O)(=O)c1cccc(Cl)c1Cl` [Example 83, [5-(2,3-Dichlorobenzenesulphonylamino)-6-methoxy-2-pyrazinylsulphanyl]acetic acid] returned a melting point of 138 to 140 °C.

The compound `COc1nc(SCc2ccccc2Cl)cnc1NS(=O)(=O)c1cccc(Cl)c1Cl` [Example 84, 2,3-Dichloro-N-[5-(2-chlorobenzylsulphanyl)-3-methoxy-2-pyrazinyl]benzenesulphonamide] returned a melting point of 119 to 120 °C.

`Cc1cnc(NS(=O)(=O)c2cccc(Cl)c2Cl)c(OCc2ccc[n+]([O-])c2)n1` [Example 86] gave a melting point of 223 to 228 °C.

For `O=S(=O)(Nc1ncc(Cl)nc1OCc1ccncc1)c1cccc(Cl)c1Cl` [Example 87, 2,3-Dichloro-N-[5-chloro-3-(4-pyridinylmethoxy)-2-pyrazinyl]benzenesulphonamide], the melting point is 226 to 229 °C (dec.).

Consider `O=S(=O)(Nc1ncc(Cl)nc1OCc1ccccn1)c1cccc(Cl)c1Cl` [Example 89, 2,3-dichloro-N-[5-chloro-3-(2-pyridinylmethoxy)-2-pyrazinyl]benzenesulphonamide], for which the melting point is 147 to 148 °C.

In the case of `CSCCOc1nc(Cl)cnc1NS(=O)(=O)c1cccc(Cl)c1Cl` [Example 90, 2,3-Dichloro-N-[5-chloro-3-(2-methylsulphanylethoxy)-2-pyrazinyl]benzenesulphonamide], the melting point is 140 to 141 °C.

On to `CCCCOc1nc(Cl)cnc1NS(=O)(=O)c1cccc(Cl)c1Cl` [Example 91, N-(3-Butoxy-5-chloro-2-pyrazinyl)-2,3-dichlorobenzenesulphonamide], for which the melting point was in the range of 133 to 134 °C.

On to `Cc1ncccc1COc1nc(Cl)cnc1NS(=O)(=O)c1cccc(Cl)c1Cl` [Example 92, 2,3-Dichloro-N-[5-chloro-3-(2-methyl-3-pyridinylmethoxy)-2-pyrazinyl]benzenesulphonamide], for which the melting point was 214 to 216 °C (dec.).

For the compound `Cc1cccc(COc2nc(Cl)cnc2NS(=O)(=O)c2cccc(Cl)c2Cl)n1` [Example 93, 2,3-Dichloro-N-[S-chloro-3-(6-methyl-2-pyridinylmethoxy)-2-pyrazinyl]benzenesulphonamide], the melting point fell in the range of 158 to 159 °C.

`Cc1c(Cl)cccc1S(=O)(=O)Nc1ncc(Cl)nc1OCc1cccnc1` [Example 95, 3-Chloro-N-[5-chloro-3-(3-pyridinylmethoxy)-2-pyrazinyl]-2-methylbenzenesulphonamide] showed a melting point of 192 to 193 °C.

In turn, `O=S(=O)(Nc1ncc(Cl)nc1OCc1cccnc1)c1cccc(Cl)c1F` [Example 96, 3-Chloro-N-[5-chloro-3-(3-pyridinylmethoxy)-2-pyrazinyl]-2-fluorobenzenesulphonamide] returned a melting point of 177 to 178 °C.

As to `COc1ccc(COc2nc(Cl)cnc2NS(=O)(=O)c2cccc(Cl)c2Cl)cc1` [Example 97, 2,3-Dichloro-N-[5-chloro-3-(4-methoxyphenylmethoxy)-2-pyrazinyl]benzenesulphonamide], the melting point lay in the range of 163 to 164 °C.

In the case of `O=S(=O)(Nc1nc(Cl)cnc1Br)c1cccc(Cl)c1Cl` [Example 98], the melting point was 123 to 124 °C.

As to `O=S(=O)(Nc1nc(Cl)cnc1OCc1cccnc1)c1cccc(Cl)c1Cl` [Example 99, 2,3-Dichloro-N-[6-chloro-3-(3-pyridinylmethoxy)-2-pyrazinyl]benzenesulphonamide], the melting point is 203 to 204 °C.

For the compound `O=S(=O)(Nc1nc(Cl)cnc1OCc1ccccn1)c1cccc(Cl)c1Cl` [Example 100, 2,3-Dichloro-N-[6-chloro-3-(2-pyridinylmethoxy)-2-pyrazinyl]benzenesulphonamide], the melting point lay in the range of 201 to 203 °C.

In turn, `COC(=O)c1cccc(COc2nc(Cl)cnc2NS(=O)(=O)c2cccc(Cl)c2Cl)c1` [Example 104, 3-[6-Chloro-3-(2,3-dichlorobenzenesulphonylamino)-2-pyrazinyloxymethyl]benzoic acid methyl ester] yielded a melting point of 175 to 176 °C.

Take `O=C(O)c1cccc(COc2nc(Cl)cnc2NS(=O)(=O)c2cccc(Cl)c2Cl)c1` [Example 105, 3-[6-Chloro-3-(2,3-dichlorobenzenesulphonylamino)-2-pyrazinyloxymethyl]benzoic acid]: the melting point was 218 to 224 °C (dec.).

For `O=S(=O)(Nc1ncc(Cl)nc1OCc1cccc(CO)c1)c1cccc(Cl)c1Cl` [Example 106, 2,3-Dichloro-N-[5-chloro-3-(3-hydroxymethylphenylmethoxy)-2-pyrazinyl]benzenesulphonamide], the melting point fell in the range of 162 to 163 °C.

Compound `CNCc1cccc(COc2nc(Cl)cnc2NS(=O)(=O)c2cccc(Cl)c2Cl)c1` [Example 107, 2,3-Dichloro-N-[5-chloro-3-(3-methylaminomethylphenylmethoxy)-2-pyrazinyl]benzenesulphonamide] had a melting point of 167 to 168 °C.

The compound `O=S(=O)(Nc1ncc(Cl)nc1OCc1cccc(CNCCO)c1)c1cccc(Cl)c1Cl` [Example 108, 2,3-Dichloro-N-[5-chloro-3-{3-([2-hydroxyethylamino]methyl)phenylmethoxy}-2-pyrazinyl]benzenesulphonamide] yielded a melting point of 196 to 198 °C.

Take `O=S(=O)(Nc1ncc(Cl)nc1OCc1ccc(CO)cc1)c1cccc(Cl)c1Cl` [Example 109, 2,3-Dichloro-N-[5-chloro-3-(4-hydroxymethylphenylmethoxy)-2-pyrazinyl]benzenesulphonamide]: the melting point was 177 to 178 °C.

Regarding `O=S(=O)(Nc1ncc(Cl)nc1OCc1ccc(CNCCO)cc1)c1cccc(Cl)c1Cl` [Example 110, 2,3-Dichloro-N-[5-chloro-3-{4-([2-hydroxyethylamino]methyl)phenylmethoxy}-2-pyrazinyl]benzenesulphonamide], the melting point was in the range of 202 to 205 °C.

`O=S(=O)(Nc1nccnc1OCc1ccc(CO)cc1)c1cccc(Cl)c1Cl` [Example 111, 2,3-Dichloro-N-[3-(4-hydroxymethylphenylmethoxy)-2-pyrazinyl]benzenesulphonamide] registered a melting point of 160 to 161 °C.
